Reference: patent US4981799A, “Acylamino acid racemase, production and use thereof” (priority 1987, dated 1991)

Columns and labels:
acylamino acid racemase [1] = test: Influences of metal ions on enzyme activities; format: biochemical, Streptomyces sp. Y-53; details: for Relative enzyme activity, Additive Concentration 1 mM / Relative enzyme activity, Additive Concentration 10 mM: no additives taken as 100, cobalt chloride excluded; for Relative enzyme activity, Additive Concentration 1 mM: final concentration 1 mM; for Relative enzyme activity, Additive Concentration 10 mM: final concentration 10 mM
Method: Enzyme activities are determined by means of a mixed reaction system comprising 50 μl of a solution of the enzyme, 40 μl of a solution of the substrate, 10 μl of an L-aminoacylase solution and 400 μl of a 50 mM Tris-HCl buffer (pH 7.5 ). As the enzyme solution, a solution prepared by dissolving an acylamino acid racemase standard sample in a Tris-HCl buffer (pH 7.5 ) to 1 to 0.2 unit/ml was used; as the L-aminoacylase solution, a solution prepared by dissolving an L-aminoacylase standard sample (a commercially available product such as that produced by Sigma Co. may be used, but the L-aminoacylase extracted and purified from Y-53 strain was used in the present invention) in a Tris-HCl buffer (pH 7.5) to 40 to 8 units/ml.
The above solutions are mixed together by the sequential addition of the Tris-HCl buffer, substrate solution, L-aminoacylase solution and enzyme solution in this order, and reaction is initiated at 30° C. simultaneously with the addition of the enzyme solution.
For the determination of enzyme activities, the amount of methionine produced in the reaction system is determined by high performance liquid chromatography, and the enzyme activity corresponding to the production of 1 μmol/min. methionine is expressed as 1 unit. When a ymM concentration of methionine has been produced in the reaction system during a reaction time of x minutes, the activity (αunit) of the enzyme in 50 μl solution is calculated by the following equation: [formula]
In Table 4, the enzyme activities are presented in relative activities on the basis of the values obtained in the case of no additives as taken as 100.

acylamino acid racemase [2] = test: Substrate specificity of acylamino acid racemase (enzyme activity determination coupled with aminoacylase); format: biochemical, Streptomyces sp. Y-53; details: amount of produced methionine taken as 100, free amino acids checked by amino acid oxidase and HPLC; for Relative Activity (L-form substrate): D-aminoacylase of Y-53 strain coupled; for Relative Activity (D-form substrate): L-aminoacylase coupled
Method: Note that the relative activities in Table 3, where N^α -acylamino acids were used as substrates, were determined by the method of enzyme activity determination described in the term .circle.3 , with the values representing the found amount (mM) of the produced α-amino acids corresponding to respective substrates as calculated on the basis of the amount of produced methionine taken as 100. When the substrate was an L-N^α -acylamino acid, D-aminoacylase as produced by Y-53 strain was used in place of L-aminoacylase.

[3] = concentration not singled out (1 mM and 10 mM examined)

SMILES: O.O.O.O.O.O.O.O=S(=O)([O-])[O-].[Mg+2] [MgSO4 .7H2 O]
- Effect on enzyme activity (in words) (acylamino acid racemase [1]; [3]): the activating effect is greater at 10 mM than at 1 mM
- Relative enzyme activity, Additive Concentration 1 mM (acylamino acid racemase [1]): 890

SMILES: CC(=O)N[C@H](C(=O)O)C(C)C [N-acetyl-L-valine]
- Relative Activity (L-form substrate) (acylamino acid racemase [2]): 19

SMILES: O.O.O.O.O.O.[Cl][Cr]([Cl])[Cl] [CrCl3 .6H2 O]
- Relative enzyme activity, Additive Concentration 1 mM (acylamino acid racemase [1]): 96
- Relative enzyme activity, Additive Concentration 10 mM (acylamino acid racemase [1]): 100

SMILES: CSCC[C@H](N)C(=O)O [L-methionine]
- Relative Activity (L-form substrate) (acylamino acid racemase [2]): 0

SMILES: O.O.[Ba+2].[Cl-].[Cl-] [BaCl2 .2H2 O]
- Relative enzyme activity, Additive Concentration 1 mM (acylamino acid racemase [1]): 85
- Relative enzyme activity, Additive Concentration 10 mM (acylamino acid racemase [1]): 120

SMILES: CSCC[C@@H](NC(C)=O)C(=O)O [N-acetyl-D-methionine]
- Relative Activity (D-form substrate) (acylamino acid racemase [2]): 100

SMILES: [Ca+2].[Cl-].[Cl-] [CaCl2]
- Relative enzyme activity, Additive Concentration 1 mM (acylamino acid racemase [1]): 95
- Relative enzyme activity, Additive Concentration 10 mM (acylamino acid racemase [1]): 100

SMILES: CC[C@H](C)[C@@H](NC(C)=O)C(=O)O [N-acetyl-D-allo-isoleucine]
- Relative Activity (D-form substrate) (acylamino acid racemase [2]): 33

SMILES: CC(=O)N[C@H](CC(C)C)C(=O)O [N-acetyl-D-leucine]
- Relative Activity (D-form substrate) (acylamino acid racemase [2]): 37

SMILES: CC(=O)N[C@@H](C)C(=O)O [N-acetyl-L-alanine]
- Relative Activity (L-form substrate) (acylamino acid racemase [2]): 21

SMILES: CC(=O)N[C@H](Cc1c[nH]c2ccccc12)C(=O)O [N-acetyl-D-tryptophan]
- Relative Activity (D-form substrate) (acylamino acid racemase [2]): 10

SMILES: CSCC[C@@H](NC=O)C(=O)O [N-formyl-D-methionine]
- Relative Activity (D-form substrate) (acylamino acid racemase [2]): 40

SMILES: C[C@H](N)C(=O)O [L-alanine]
- Relative Activity (L-form substrate) (acylamino acid racemase [2]): 0

SMILES: CC(=O)N[C@@H](CC(C)C)C(=O)O [N-acetyl-L-leucine]
- Relative Activity (L-form substrate) (acylamino acid racemase [2]): 74

SMILES: CSCC[C@H](NC(C)=O)C(=O)O [N-acetyl-L-methionine]
- Relative Activity (L-form substrate) (acylamino acid racemase [2]): 100

SMILES: N[C@@H](Cc1c[nH]c2ccccc12)C(=O)O [L-tryptophan]
- Relative Activity (L-form substrate) (acylamino acid racemase [2]): 0

SMILES: CC(C)C[C@@H](N)C(=O)O [D-leucine]
- Relative Activity (D-form substrate) (acylamino acid racemase [2]): 0

SMILES: CC(=O)N[C@H](Cc1ccccc1)C(=O)O [N-acetyl-D-phenylalanine]
- Relative Activity (D-form substrate) (acylamino acid racemase [2]): 64

SMILES: O.O.O.O.O.O.O=S(=O)([O-])[O-].[Ni+2] [NiSO4 .6H2 O]
- Relative enzyme activity, Additive Concentration 1 mM (acylamino acid racemase [1]): 460
- Relative enzyme activity, Additive Concentration 10 mM (acylamino acid racemase [1]): 0

SMILES: CC(C)[C@H](NC(=O)CCl)C(=O)O [N-chloroacetyl-L-valine]
- Relative Activity (L-form substrate) (acylamino acid racemase [2]): 105

SMILES: [Cl][Pb][Cl] [PbCl2]
- Relative enzyme activity, Additive Concentration 1 mM (acylamino acid racemase [1]): 78
- Relative enzyme activity, Additive Concentration 10 mM (acylamino acid racemase [1]): 100

SMILES: CC(C)[C@@H](NC(=O)CCl)C(=O)O [N-chloroacetyl-D-valine]
- Relative Activity (D-form substrate) (acylamino acid racemase [2]): 80

SMILES: O=S(=O)([O-])[O-].[Sn+2] [SnSO4]
- Relative enzyme activity, Additive Concentration 1 mM (acylamino acid racemase [1]): 92
- Relative enzyme activity, Additive Concentration 10 mM (acylamino acid racemase [1]): 100

SMILES: N[C@H](Cc1c[nH]c2ccccc12)C(=O)O [D-tryptophan]
- Relative Activity (D-form substrate) (acylamino acid racemase [2]): 0

SMILES: O.O.O.O.O.O.O.O=S(=O)([O-])[O-].[Mn+2] [MnSO4 .7H2 O]
- Relative enzyme activity, Additive Concentration 1 mM (acylamino acid racemase [1]): 780

SMILES: CC(=O)N[C@@H](C(=O)O)C(C)C [N-acetyl-D-valine]
- Relative Activity (D-form substrate) (acylamino acid racemase [2]): 35

SMILES: N[C@@H](Cc1ccccc1)C(=O)O [L-phenylalanine]
- Relative Activity (L-form substrate) (acylamino acid racemase [2]): 0

SMILES: C[C@@H](N)C(=O)O [D-alanine]
- Relative Activity (D-form substrate) (acylamino acid racemase [2]): 0

SMILES: O=C(CCl)N[C@H](Cc1ccccc1)C(=O)O [N-chloroacetyl-D-phenylalanine]
- Relative Activity (D-form substrate) (acylamino acid racemase [2]): 90

SMILES: [Cl-].[Li+] [LiCl]
- Relative enzyme activity, Additive Concentration 1 mM (acylamino acid racemase [1]): 100
- Relative enzyme activity, Additive Concentration 10 mM (acylamino acid racemase [1]): 120

SMILES: O.O.O.O.O.O.O.O.O.O.O.O.O.O.O.O.O=S(=O)([O-])[O-].O=S(=O)([O-])[O-].O=S(=O)([O-])[O-].[Al+3].[Al+3] [Al2 (SO4)3 .16H2 O]
- Effect on enzyme activity (in words) (acylamino acid racemase [1]; at 10 mM): inhibit the enzyme activity
- Relative enzyme activity, Additive Concentration 1 mM (acylamino acid racemase [1]): 79
- Relative enzyme activity, Additive Concentration 10 mM (acylamino acid racemase [1]): 0

SMILES: CC(C)[C@@H](N)C(=O)O [D-valine]
- Relative Activity (D-form substrate) (acylamino acid racemase [2]): 0

SMILES: O.O.O.O.O.O.[Cl-].[Cl-].[Co+2] [CoCl2 .6H2 O]
- Effect on enzyme activity (in words) (acylamino acid racemase [1]; at 10 mM): hardly activate the enzyme
- Effect on enzyme activity (in words) (acylamino acid racemase [1]; low concentrations (around 1 mM)): noticeable activating effect
- Relative enzyme activity, Additive Concentration 10 mM (acylamino acid racemase [1]): 140

SMILES: C[C@@H](NC(=O)c1ccccc1)C(=O)O [N-benzoyl-D-alanine]
- Relative Activity (D-form substrate) (acylamino acid racemase [2]): 14

SMILES: CSCC[C@H](NC=O)C(=O)O [N-formyl-L-methionine]
- Relative Activity (L-form substrate) (acylamino acid racemase [2]): 63

SMILES: CC(C)[C@H](N)C(=O)O [L-valine]
- Relative Activity (L-form substrate) (acylamino acid racemase [2]): 0

SMILES: CC(=O)N[C@H](C)C(=O)O [N-acetyl-D-alanine]
- Relative Activity (D-form substrate) (acylamino acid racemase [2]): 33

SMILES: CSCC[C@@H](N)C(=O)O [D-methionine]
- Relative Activity (D-form substrate) (acylamino acid racemase [2]): 0

SMILES: O.O.O.O.O.O.[Cl-].[Cl-].[Sr+2] [SrCl2 .6H2 O]
- Relative enzyme activity, Additive Concentration 1 mM (acylamino acid racemase [1]): 94
- Relative enzyme activity, Additive Concentration 10 mM (acylamino acid racemase [1]): 110

SMILES: O=C(O)CN(CCN(CC(=O)O)CC(=O)O)CC(=O)O [EDTA, reference compound]
- Effect on enzyme activity (in words) (acylamino acid racemase [1]; at 10 mM): noticeable inhibitory effect
- Relative enzyme activity, Additive Concentration 1 mM (acylamino acid racemase [1]): 68
- Relative enzyme activity, Additive Concentration 10 mM (acylamino acid racemase [1]): 0

SMILES: N[C@H](Cc1ccccc1)C(=O)O [D-phenylalanine]
- Relative Activity (D-form substrate) (acylamino acid racemase [2]): 0

SMILES: O.O.O.O.O.O.O.O=S(=O)([O-])[O-].[Zn+2] [ZnSO4 .7H2 O]
- Relative enzyme activity, Additive Concentration 1 mM (acylamino acid racemase [1]): 810
- Relative enzyme activity, Additive Concentration 10 mM (acylamino acid racemase [1]): 80

SMILES: O=C(CCl)N[C@@H](Cc1ccccc1)C(=O)O [N-chloroacetyl-L-phenylalanine]
- Relative Activity (L-form substrate) (acylamino acid racemase [2]): 112

SMILES: O.O.O.O.O.O=S(=O)([O-])[O-].[Cu+2] [CuSO4 .5H2 O]
- Effect on enzyme activity (in words) (acylamino acid racemase [1]; [3]): noticeable inhibitory effect
- Relative enzyme activity, Additive Concentration 1 mM (acylamino acid racemase [1]): 0
- Relative enzyme activity, Additive Concentration 10 mM (acylamino acid racemase [1]): 0

SMILES: [Cl-].[K+] [KCl]
- Relative enzyme activity, Additive Concentration 1 mM (acylamino acid racemase [1]): 110
- Relative enzyme activity, Additive Concentration 10 mM (acylamino acid racemase [1]): 130

SMILES: CC(=O)N[C@@H](Cc1c[nH]c2ccccc12)C(=O)O [N-acetyl-L-tryptophan]
- Relative Activity (L-form substrate) (acylamino acid racemase [2]): 8

SMILES: O.O.O.O.O.O.O.O=S(=O)([O-])[O-].[Fe+2] [FeSO4 .7H2 O]
- Relative enzyme activity, Additive Concentration 1 mM (acylamino acid racemase [1]): 100
- Relative enzyme activity, Additive Concentration 10 mM (acylamino acid racemase [1]): 560

SMILES: [Cl-].[Na+] [NaCl]
- Relative enzyme activity, Additive Concentration 1 mM (acylamino acid racemase [1]): 100
- Relative enzyme activity, Additive Concentration 10 mM (acylamino acid racemase [1]): 130

SMILES: CC(=O)N[C@@H](Cc1ccccc1)C(=O)O [N-acetyl-L-phenylalanine]
- Relative Activity (L-form substrate) (acylamino acid racemase [2]): 84

SMILES: O.O.[Na+].[Na+].[O]=[Mo](=[O])([O-])[O-] [NaMoO4 .2H2 O]
- Effect on enzyme activity (in words) (acylamino acid racemase [1]; at 10 mM): inhibit the enzyme activity
- Relative enzyme activity, Additive Concentration 1 mM (acylamino acid racemase [1]): 96
- Relative enzyme activity, Additive Concentration 10 mM (acylamino acid racemase [1]): 0

SMILES: CC(C)C[C@H](N)C(=O)O [L-leucine]
- Relative Activity (L-form substrate) (acylamino acid racemase [2]): 0
